Key:
Mus musculus [1] = species: Mus musculus; test: Toxicity in Swiss albino mouse assessed as reduction in tremors by Irwin test; type: organism-based; conditions: in vivo
Mus musculus [2] = species: Mus musculus; test: Toxicity in Swiss albino mouse assessed as reduction in equilibrium after 180 mins by Irwin test; type: organism-based; conditions: in vivo, 3 h
HCT-116 [3] = test: Growth inhibition of human HCT116 cells at 100 uM; type: functional; conditions: read-out: GI
Mus musculus [4] = species: Mus musculus; test: Toxicity in Swiss albino mouse assessed as reduction in spontaneous activity after 60 mins by Irwin test; type: organism-based; conditions: in vivo, 1 h
Mus musculus [5] = species: Mus musculus; test: Toxicity in Swiss albino mouse assessed as loss of hypotonic gait after 30 mins by Irwin test; type: organism-based; conditions: in vivo, 0.5 h
UACC-257 [6] = test: Growth inhibition of human UACC257 cells; type: functional
Mus musculus [7] = test: Toxicity in Swiss albino mouse assessed as loss of spontaneous movement at 25 mg/kg, ip after 1 hr by Lim test; type: organism-based; design: dose 25 mg/kg, route intraperitoneal; conditions: in vivo
SNB-75 [8] = test: Growth inhibition of human SNB75 cells at 100 uM; type: functional; conditions: read-out: GI
M19-MEL [9] = test: Growth inhibition of human M19-MEL cells; type: functional
OVCAR-3 [10] = test: Growth inhibition of human OVCAR-3 cells; type: functional
NCI-H23 [11] = test: Growth inhibition of human NCI-H23 cells
KM12 [12] = test: Growth inhibition of human KM12 cells at 100 uM; type: functional; conditions: read-out: GI
KM12 [13] = test: Growth inhibition of human KM12 cells; type: functional
DMS-273 [14] = test: Growth inhibition of human DMS273 cells at 100 uM; type: functional; conditions: read-out: GI
NCI-H226 [15] = test: Growth inhibition of human NCI-H226 cells; type: functional
OVCAR-4 [16] = test: Growth inhibition of human OVCAR4 cells at 100 uM; type: functional; conditions: read-out: GI
CCRF-CEM [17] = test: Growth inhibition of human CCRF-CEM cells at 100 uM; type: functional; conditions: read-out: GI
[18] = Toxicity in Swiss albino mouse assessed as death after 5 days assessed after 24 hrs post treatment by Irwin test; type: organism-based; conditions: in vivo
Mus musculus [19] = species: Mus musculus; test: Toxicity in Swiss albino mouse assessed as loss of righting reflex after 30 mins by Irwin test; type: organism-based; conditions: in vivo, 0.5 h
NCI-H226 [20] = test: Growth inhibition of human NCI-H226 cells at 100 uM; type: functional; conditions: read-out: GI
SNB-19 [21] = test: Growth inhibition of human SNB19 cells; type: functional
Mus musculus [22] = species: Mus musculus; test: Toxicity in Swiss albino mouse assessed as reduction in motor affective response by Irwin test; type: organism-based; conditions: in vivo
DMS-273 [23] = test: Growth inhibition of human DMS273 cells; type: functional
OVCAR-4 [24] = test: Growth inhibition of human OVCAR4 cells; type: functional
CCRF-CEM [25] = test: Growth inhibition of human CCRF-CEM cells; type: functional
UACC-257 [26] = test: Growth inhibition of human UACC257 cells at 100 uM; type: functional; conditions: read-out: GI
K562 [27] = test: Growth inhibition of human K562 cells; type: functional
SNB-19 [28] = test: Growth inhibition of human SNB19 cells at 100 uM; type: functional; conditions: read-out: GI
SK-MEL-2 [29] = test: Growth inhibition of human SK-MEL-2 cells at 100 uM; type: functional; conditions: read-out: GI
SK-MEL-5 [30] = test: Growth inhibition of human SK-MEL-5 cells at 100 uM; type: functional; conditions: read-out: GI
SF-268 [31] = test: Growth inhibition of human SF268 cells; type: functional
Mus musculus [32] = test: Toxicity in Swiss albino mouse assessed as loss of righting reflex at 50 mg/kg, ip after 1 hr by Lim test; type: organism-based; design: dose 50 mg/kg, route intraperitoneal; conditions: in vivo
RPMI-8226 [33] = test: Growth inhibition of human RPMI8226 cells; type: functional
K562 [34] = test: Growth inhibition of human K562 cells at 100 uM; type: functional; conditions: read-out: GI
M19-MEL [35] = test: Growth inhibition of human M19-MEL cells at 100 uM; type: functional; conditions: read-out: GI
Mus musculus [36] = test: Toxicity in Swiss albino mouse assessed as loss of muscle tone at 50 mg/kg, ip after 1 hr by Lim test; type: organism-based, Muscle tissue; design: dose 50 mg/kg, route intraperitoneal; conditions: in vivo
Mus musculus [37] = test: Toxicity in Swiss albino mouse assessed as loss of righting reflex at 10 mg/kg, ip after 1 hr by Lim test; type: organism-based; design: dose 10 mg/kg, route intraperitoneal; conditions: in vivo
Mus musculus [38] = species: Mus musculus; test: Toxicity in Swiss albino mouse assessed as reduction in convulsions by Irwin test; type: organism-based; conditions: in vivo
HCC 2998 [39] = test: Growth inhibition of human HCC2998 cells at 100 uM; type: functional; conditions: read-out: GI
MOLT-4 [40] = test: Growth inhibition of human MOLT4 cells; type: functional
Mus musculus [41] = test: Toxicity in Swiss albino mouse assessed as loss of muscle tone at 25 mg/kg, ip after 1 hr by Lim test; type: organism-based, Muscle tissue; design: dose 25 mg/kg, route intraperitoneal; conditions: in vivo
NCI-H522 [42] = test: Growth inhibition of human NCI-H522 cells at 100 uM; type: functional; conditions: read-out: GI
HCC 2998 [43] = test: Growth inhibition of human HCC2998 cells; type: functional
Mus musculus [44] = species: Mus musculus; test: Toxicity in Swiss albino mouse assessed as loss of sight after 30 mins by Irwin test; type: organism-based; conditions: in vivo, 0.5 h
SK-MEL-2 [45] = test: Growth inhibition of human SK-MEL-2 cells; type: functional
NCI-H522 [46] = test: Growth inhibition of human NCI-H522 cells; type: functional
SNB-75 [47] = test: Growth inhibition of human SNB75 cells; type: functional
RPMI-8226 [48] = test: Growth inhibition of human RPMI8226 cells at 100 uM; type: functional; conditions: read-out: GI
SK-MEL-5 [49] = test: Growth inhibition of human SK-MEL-5 cells; type: functional
Mus musculus [50] = test: Toxicity in Swiss albino mouse assessed as loss of righting reflex at 25 mg/kg, ip after 1 hr by Lim test; type: organism-based; design: dose 25 mg/kg, route intraperitoneal; conditions: in vivo
Mus musculus [51] = test: Toxicity in Swiss albino mouse assessed as loss of muscle tone at 10 mg/kg, ip after 1 hr by Lim test; type: organism-based, Muscle tissue; design: dose 10 mg/kg, route intraperitoneal; conditions: in vivo
HCT-116 [52] = test: Growth inhibition of human HCT116 cells; type: functional
NCI-H23 [53] = test: Growth inhibition of human NCI-H23 cells at 100 uM; type: functional; conditions: read-out: GI
Mus musculus [54] = species: Mus musculus; test: Toxicity in Swiss albino mouse assessed as involvement of autonomic nervous system; type: organism-based; conditions: in vivo
MOLT-4 [55] = test: Growth inhibition of human MOLT4 cells at 100 uM; type: functional; conditions: read-out: GI
SF-268 [56] = test: Growth inhibition of human SF268 cells at 100 uM; type: functional; conditions: read-out: GI
Mus musculus [57] = species: Mus musculus; test: Toxicity in Swiss albino mouse assessed as reduction in sensory-motor response by Irwin test; type: organism-based; conditions: in vivo
UO-31 [58] = test: Growth inhibition of human UO31 cells at 100 uM; type: functional; conditions: read-out: GI
Mus musculus [59] = species: Mus musculus; test: Toxicity in Swiss albino mouse assessed as reduction in twitches by Irwin test; type: organism-based; conditions: in vivo
OVCAR-3 [60] = test: Growth inhibition of human OVCAR-3 cells at 100 uM; type: functional; conditions: read-out: GI
Mus musculus [61] = test: Toxicity in Swiss albino mouse assessed as loss of spontaneous movement at 50 mg/kg, ip after 1 hr by Lim test; type: organism-based; design: dose 50 mg/kg, route intraperitoneal; conditions: in vivo
Mus musculus [62] = test: Toxicity in Swiss albino mouse assessed as loss of spontaneous movement at 10 mg/kg, ip after 1 hr by Lim test; type: organism-based; design: dose 10 mg/kg, route intraperitoneal; conditions: in vivo
UO-31 [63] = test: Growth inhibition of human UO31 cells; type: functional
Mus musculus [64] = species: Mus musculus; test: Toxicity in Swiss albino mouse assessed as reduction in muscular tone after 180 mins by Irwin test; type: organism-based; conditions: in vivo, 3 h

O=C1OCc2c1cc1ccc(O)c(O[C@@H]3O[C@H](CO)[C@@H](O)[C@H](O)[C@H]3O)c1c2-c1ccc2c(c1)OCO2 [ELENOSIDE]
Activity (Mus musculus [1]): Non-toxic | Activity (Mus musculus [2]): Toxic | inhibition of growth at 100 µM (HCT-116 [3]): 77% | Activity (Mus musculus [4]): Toxic | Activity (Mus musculus [5]): Toxic | GI50 (UACC-257 [6]): 37.9 µM | Activity (Mus musculus [7]): 50% | inhibition of growth at 100 µM (SNB-75 [8]): 66% | GI50 (M19-MEL [9]): 38.2 µM | GI50 (OVCAR-3 [10]): 64.6 µM | GI50 (NCI-H23 [11]): 47.5 µM | inhibition of growth at 100 µM (KM12 [12]): 77% | GI50 (KM12 [13]): 23.4 µM | inhibition of growth at 100 µM (DMS-273 [14]): 67% | GI50 (NCI-H226 [15]): 48.4 µM | inhibition of growth at 100 µM (OVCAR-4 [16]): 66% | inhibition of growth at 100 µM (CCRF-CEM [17]): 84% | LD50 at 5 days [18]: 3.05 mg/kg | Activity (Mus musculus [19]): Toxic | inhibition of growth at 100 µM (NCI-H226 [20]): 72% | GI50 (SNB-19 [21]): 36 µM | Activity (Mus musculus [22]): Dose-dependent effect | GI50 (DMS-273 [23]): 47.5 µM | GI50 (OVCAR-4 [24]): 56.2 µM | GI50 (CCRF-CEM [25]): 34.9 µM | inhibition of growth at 100 µM (UACC-257 [26]): 72% | GI50 (K562 [27]): 39.5 µM | inhibition of growth at 100 µM (SNB-19 [28]): 81% | inhibition of growth at 100 µM (SK-MEL-2 [29]): 84% | inhibition of growth at 100 µM (SK-MEL-5 [30]): 114% | GI50 (SF-268 [31]): 57.1 µM | Activity (Mus musculus [32]): 20% | GI50 (RPMI-8226 [33]): 34.6 µM | inhibition of growth at 100 µM (K562 [34]): 79% | inhibition of growth at 100 µM (M19-MEL [35]): 81% | Activity (Mus musculus [36]): 60% | Activity (Mus musculus [37]): 40% | Activity (Mus musculus [38]): Non-toxic | inhibition of growth at 100 µM (HCC 2998 [39]): 87% | GI50 (MOLT-4 [40]): 34.3 µM | Activity (Mus musculus [41]): 50% | inhibition of growth at 100 µM (NCI-H522 [42]): 126% | GI50 (HCC 2998 [43]): 38.2 µM | Activity (Mus musculus [44]): Toxic | GI50 (SK-MEL-2 [45]): 33.5 µM | GI50 (NCI-H522 [46]): 22.6 µM | GI50 (SNB-75 [47]): 55.2 µM | inhibition of growth at 100 µM (RPMI-8226 [48]): 97% | GI50 (SK-MEL-5 [49]): 26.2 µM | Activity (Mus musculus [50]): 20% | Activity (Mus musculus [51]): 90% | GI50 (HCT-116 [52]): 39.7 µM | inhibition of growth at 100 µM (NCI-H23 [53]): 72% | Activity (Mus musculus [54]): Toxic | inhibition of growth at 100 µM (MOLT-4 [55]): 88% | inhibition of growth at 100 µM (SF-268 [56]): 70% | Activity (Mus musculus [57]): Dose-dependent effect | inhibition of growth at 100 µM (UO-31 [58]): 80% | Activity (Mus musculus [59]): Non-toxic | inhibition of growth at 100 µM (OVCAR-3 [60]): 60% | Activity (Mus musculus [61]): 60% | Activity (Mus musculus [62]): 90% | GI50 (UO-31 [63]): 27.2 µM | Activity (Mus musculus [64]): Dose-dependent effect

Source: ChEMBL document CHEMBL1150808, “General behavior, toxicity, and cytotoxic activity of elenoside, a lignan from Justicia hyssopifolia” (J Nat Prod, 2001)
